According to PMC7801616, “Surface hydrophobics mediate functional dimerization of CYP121A1 of Mycobacterium tuberculosis” (Scientific Reports, 2021):
“Also recorded” adds a separate entry of the source.

Legend:
[1] = test system: I166A_I180A CYP121A1 heme thiolate-CO complex
WT CYP121A1 dimer = test system: WT CYP121A1 dimer; parameters: species or system Mycobacterium tuberculosis
WT CYP121A1 (dimeric) = WT CYP121A1 (dimeric) (Mycobacterium tuberculosis, UniProt P9WPP7); format: binding; conditions: pH 7.4
[2] = target: I166A_I180A CYP121A1 (monomeric) (Mycobacterium tuberculosis, UniProt P9WPP7, I166A/I180A); format: binding
I166A_I180A CYP121A1 = format: binding, Mycobacterium tuberculosis

SMILES: O=C1N[C@@H](Cc2ccc(O)cc2)C(=O)N[C@H]1Cc1ccc(O)cc1 [cYY, cyclo-L-Tyr-L-Tyr]
- increase of estimated half-life of the heme thiolate-CO complex by presence of substrate [1]: 50 fold

SMILES: Clc1ccc(COC(Cn2ccnc2)c2ccc(Cl)cc2Cl)cc1 (stereo not drawn) [econazole]
- effect of ligand saturation on dimer migration on gel filtration column (WT CYP121A1 dimer): did not cause CYP121A1 to migrate on the column as a monomer

SMILES: c1c[nH]cn1 [imidazole]
- Kd (WT CYP121A1 (dimeric)): 46 mM
- decrease of Kd from dimeric to monomeric CYP121A1 [2]: 20 fold
- Kd ([2]; pH 7.4): 2.73 mM
- effect of ligand on thermal stability (I166A_I180A CYP121A1): destabilizing

SMILES: CC(=O)N1CCN(c2ccc(OCC3COC(Cn4ccnc4)(c4ccc(Cl)cc4Cl)O3)cc2)CC1 (stereo not drawn) [ketoconazole]
- effect of ligand on thermal stability (I166A_I180A CYP121A1): modest increase in the stability; also recorded: destabilizing
- stabilization of the CO-bound 450 nm species [1]: minimal stabilization of the 450 nm species

SMILES: Clc1ccc(COC(Cn2ccnc2)c2ccc(Cl)cc2Cl)c(Cl)c1 (stereo not drawn) [miconazole]
- effect of ligand saturation on dimer migration on gel filtration column (WT CYP121A1 dimer): did not cause CYP121A1 to migrate on the column as a monomer
